The results in this text go back to patent US6887669B1, “Reagents for assays for ligands” (Dade Behring Marburg GmbH, priority 1996, dated 2005).

The subject of data set [1] is MPA bound to plasma proteins in normal human plasma (NHP). The experiment in a line: MPA enzyme immunoassay rates with releasing agents in Reagent A (NHP versus buffer), Example 2. The protocol:
Rates were determined on a Cobas Mira Plus® instrument (Roche Diagnostics Systems, Inc., Branchburg, N.J.). The temperature was kept at 37° C. for the entire assay. Timings were carried out in cycles with each cycle being 25 seconds. In cycle 1, the first cycle, 75 μL of water and 3 μL of a sample were mixed with 155 μL of A diluent in a 0.6 cm path length cuvette. This mixture was incubated until the addition of Reagent B in cycle 7. […] In cycle 7, seventy-five μL of Reagent B followed by 20 μL of water was then added to the cuvette, mixed, and incubated until the end of cycle 25 at which time the assay was finished. During the assay, absorbance readings at 340 nm were made at the end of every cycle. A best linear fit was then made using only the 12 consecutive absorbance readings of cycles 14 through 25 versus time in minutes. The slope of this line was the rate.
In these experiments, the diluent for Reagent A (Rgt A) was made somewhat differently than that in Example 1. However, the composition was the same, except for component 7 (releasing agent, o-anisic acid) and component 10 (concentration of MPA antibody). Five diluents were prepared, four with one of each of the above agents and one control with no agent. First, a 2×solution was made in the manner described in Example 1 but which had only components 1 through 5 and 9 at twice the amounts listed. Next, for three of the diluents, each of the three anisic acid isomers was weighed to achieve a final molarity of 12.5 mM and predissolved in one quarter the final volume of water and a minimum amount of 6 N NaOH (approximately 6 drops per 0.2 grams anisic acid). For the fourth diluent, the agent, ANS, was weighed to give a 0.25 mM final concentration and added to one quarter the final volume of water. The fifth diluent, the control, had no releasing agent. To make each of these five diluents, the appropriate amounts of the 2×solution, the 1×amount of BSA, component 8, and the 1×amount of the Pluronic 25R solution, component 6, were combined. Four of these then received the appropriate agent. All were mixed well. Where necessary, pH adjustments were made as described previously and each preparation was brought to the final volume with deionized water to achieve 1× concentrations of components. Each of these A diluents was then filtered through a 0.2 micron filter. Final pH measurements on each were all between 5.5 to 5.7. For each of these five A diluents, a corresponding Reagent A was made by adding antibody to MPA for a final concentration of 6.5 μg/mL. Reagent B (Rgt B) was prepared as described in Example 1 except that component 20 was omitted and 0.1% BSA (Miles Diagnostics, Kankakee, Ill.) was substituted for BLG.
In a total of two runs the effects of each of the four agents relative to a control of no agent was examined with respect to (1) background absorbance at 340 nm, (2) the rate of a negative MPA sample, (3) the rate span between 0 and 10 μg/mL MPA, and (4) the closeness of rate matching of a 10 μg/mL MPA spike in NHP and in buffer. Both runs included the control Reagent A. The first run evaluated Reagent A with ANS while the second run evaluated Reagent A preparations containing the structural isomers of anisic acid.
MPA was spiked into NHP and buffer (Buff) to achieve a final concentration of 10 μg/mL MPA. Buffer in this example was 50 mM MES (2-[N-morpholino]ethanesulfonic acid, obtained from Sigma Chemical Company) with 0.1% (weight/volume) sodium azide, pH 7.1. As with PBS, this buffer has no protein and thus no protein binding of MPA can occur.
In both runs, the background absorbance at 340 nm for each Reagent A was measured in duplicate on a 230-μL combination of 3 μL negative NHP, 72 μL of deionized water, and 155 μL Reagent A. The cell path length was 0.6 cm. The average A340 (A=absorbance) values are found in Column C of Table 1. Duplicate rates were determined on the spiked and unspiked NHP and buffer similar to Example 1. […]

A short description of data set [2]: Background absorbance at 340 nm of Reagent A containing releasing agent. Type of data set: physicochemical. The note with it: ANS 0.25 mM, anisic acids 12.5 mM in Rgt A. Here is the method:
In both runs, the background absorbance at 340 nm for each Reagent A was measured in duplicate on a 230-μL combination of 3 μL negative NHP, 72 μL of deionized water, and 155 μL Reagent A. The cell path length was 0.6 cm. […] These changes are noted as follows. Reagent B and water were added in cycle 4. The analysis was finished at the end of cycle 15. Rates were determined using the 5 absorbance readings of cycles 11 through 15.

[3] abbreviates: 50 mM MES buffer pH 7.1, ANS 0.25 mM, anisic acids 12.5 mM in Rgt A.
The mark [4] stands for this setting: ANS 0.25 mM, anisic acids 12.5 mM in Rgt A.

Consider `COc1ccccc1C(=O)O` [o-AA, o-methoxybenzoic acid], for which, in data set [1] (0 to 10 μg/mL MPA in buffer), the “I (H-G) Buff Rate Span” value is on record as 109.3 mA/min. The “J (H-F) Buff-NHP Rate Diff.” value in data set [1] (10 μg/mL MPA, closer to zero = better releasing effect) turned out to be 0.6 mA/min. In addition, in data set [1] (setting [3]), the “G Buff with 0 μg/mL MPA Rate” value is 168.2 mA/min and the “H Buff with 10 μg/mL MPA Rate” value was determined as 277.5 mA/min. For the same molecule, in data set [1] (setting [4]), the “E NHP with 0 μg/mL MPA Rate” value amounted to 169.5 mA/min and the “F NHP with 10 μg/mL MPA Rate” value is on record as 276.9 mA/min. Besides, in data set [2] (3 μL negative NHP + 72 μL water + 155 μL Reagent A, 0.6 cm path), the “C A 340 nm (background absorbance)” value stood at 0.490. Also, the “D ΔA = agent - control ΔA 340 nm” value in data set [2] is 0.004.
